Experimental data published in US20260265199A1, “CRYSTALLINE FORMS OF (R)-2-AMINO-5-(4-(2-(3,5-DIFLUOROPHENYL)-2-HYDROXYACETAMIDO)-2-METHYLPHENYL)-N-ISOPROPYLNICOTINAMIDE AND METHODS FOR USING THE SAME” (HIBERCELL, INC., priority 2023, published 2026).
Where a name gives a salt, the structure may show the parent alone. Read-outs that look alike come from different tables or passages of the source.

Test: Phase 1a study: pharmacokinetics after oral BID dosing in subjects with advanced solid tumors
Assay type: in vivo, human
Details: for Tmax / Cmax / half-life / AUC(0-t) / Vd/F / AUC(0-inf) / AUC: human, in vivo; for Vd/F: read-out: Vz/F; for AUC: read-out: AUC0-τ
Procedure: This example describes a first in human, Phase 1a, multi-center, open-label study to establish the maximum tolerated dose (MTD) and evaluate the safety and tolerability of oral dosing of Form A of the hemi-fumarate salt of the compound of formula (I) (Example 11) in a dose-escalating fashion. Form A of the hemi-fumarate salt was orally administered BID every day with food or within 30 minutes of completing a meal, starting at 25 mg, with doses escalating to 50, 100, 200, 400, 600, and 900 mg BID as safety allows for each 3-week treatment cycle.
Up to 36 qualified subjects at 3 to 5 US sites, who have specific tumor types of renal cell carcinoma (RCC), gastric cancer (GC), metastatic breast cancer (MBC), small cell lung cancer (SCLC), and other solid tumors (e.g., non-small cell lung cancer, colorectal cancer, carcinoma of unknown primary) with the exception of rapidly progressing neoplasms (e.g., pancreatic cancer, glioblastoma, hepatocellular carcinoma) received Form A of the hemi-fumarate salt. Every effort was made to ensure approximately 50% of all subjects enrolled were subjects with RCC and GC. The starting dose level was 25 mg twice daily (BID), escalating to 50, 100, and 200 mg BID as safety allows, following the Bayesian Optimal Interval (BOIN) design. The safety monitoring committee (SMC) evaluated the dose-limiting toxicities (DLTs) and cumulative safety and PK data at the end of each cohort. Based on the SMC recommendations after a comprehensive review of PK and safety data for 200 mg BID dose, higher dose levels were evaluated, starting with 400 mg BID. The dose escalated to 600 mg and then 900 mg following the BOIN design starting with 1 subject at each escalated dose, until the MTD was reached or the sponsor or SMC declares the dose most appropriate for clinical development. This Phase 1a will be expanded into a Phase 1b/2a study through a protocol amendment and will then assess the dose and tumor type(s) selected in Phase 1a as the most appropriate for further clinical development. Subjects were dosed until unacceptable toxicity, disease progression per immune-related Response Evaluation Criteria in Solid Tumors (iRECIST), subject withdrawal, any other administrative reasons, or after 2 years of treatment, whichever occurs first. Efficacy was assessed via Response Evaluation Criteria in Solid Tumors 1.1 (RECIST 1.1); computed tomography (CT) scans were conducted every 6 weeks. Safety, including occurrence of dose-limiting toxicities (DLTs), pharmacokinetics (PK), and biomarker parameters were also assessed.
Form A of the hemi-fumarate salt was orally administered BID with food or within 30 minutes of completing a meal, starting at 25 mg, with doses escalating to 50, 100, 200, 400, 600 and 900 mg BID as safety allowed. Up to 24 subjects were enrolled to ensure 12 subjects completed the study at the estimated MTD of Form A of the hemi-fumarate salt. Dosing occurred in 3-week cycles. Subjects spent Cycle 1/Day 1 (C1D1) in the clinic followed by an overnight stay for safety monitoring and PK sampling. Subjects were hospitalized for administration of first 3 doses: CID1 am and pm doses, and Cycle 1/Day 2 (C1D2) am dose; on Days 8, 15, and 21 the am dose was taken in the clinic after the planned PK samples. All other doses were self administered at home.
Results of Cohorts 1 to 6 the study are detailed in Tables 47-50 below.

[1] = po, 300 mg, 300 mg single oral dose, Cycle 1 Day 1, geometric mean, N = 4
[2] = po, 300 mg, 300 mg twice daily oral, Cycle 1 Day 21, point estimate, N = 1
[3] = po, 400 mg, 400 mg single oral dose, Cycle 1 Day 1, geometric mean, N = 3
[4] = po, 600 mg, 600 mg single oral dose, Cycle 1 Day 1, point estimate, N = 1
[5] = po, 600 mg, 600 mg twice daily oral, Cycle 1 Day 21, point estimate, N = 1

`Cc1cc(NC(=O)[C@H](O)c2cc(F)cc(F)c2)ccc1-c1cnc(N)c(C(=O)NC(C)C)c1` [Form A of the hemi-fumarate salt, (R)-2-amino-5-(4-(2-(3,5-difluorophenyl)-2-hydroxyacetamido)-2-methylphenyl)-N-isopropylnicotinamide] gave a Tmax (po, 200 mg, 200 mg twice daily oral, Cycle 1 Day 21, median, N = 4) of 5 h, a Cmax [1] of 1140 ng/mL and a half-life (po, 300 mg, 300 mg single oral dose, Cycle 1 Day 1, geometric mean, N = 4, interpret with caution, terminal elimination phase not well captured, read-out: t1/2 (converted)) of 413 min. For the same compound, the AUC(0-t) (po, 300 mg, 300 mg single oral dose, Cycle 1 Day 1, geometric mean, N = 4, read-out: AUC0-12) was 8610 ng·h/mL, the AUC(0-t) (po, 300 mg, 300 mg single oral dose, Cycle 1 Day 1, geometric mean, N = 4, read-out: AUC0-last) was 8610 ng·h/mL and the Vd/F [1] was 619 L. It also gave a Tmax (po, 300 mg, 300 mg single oral dose, Cycle 1 Day 1, median, N = 4) of 7 h, a Cmax [2] of 3030 ng/mL and a Tmax [2] of 8 h. For the same compound, the AUC(0-t) (po, 300 mg, 300 mg twice daily oral, Cycle 1 Day 21, point estimate, N = 1, read-out: AUC0-last) was 28400 ng·h/mL, the Cmax [3] was 649 ng/mL and the half-life (po, 400 mg, 400 mg single oral dose, Cycle 1 Day 1, geometric mean, N = 3, interpret with caution, terminal elimination phase not well captured, read-out: t1/2 (converted)) was 407 min. For the same compound, the AUC(0-t) (po, 400 mg, 400 mg single oral dose, Cycle 1 Day 1, geometric mean, N = 3, read-out: AUC0-12) was 3830 ng·h/mL, the AUC(0-t) (po, 400 mg, 400 mg single oral dose, Cycle 1 Day 1, geometric mean, N = 3, read-out: AUC0-last) was 3830 ng·h/mL and the Vd/F [3] was 240 L. For the same compound, the Tmax (po, 400 mg, 400 mg single oral dose, Cycle 1 Day 1, median, N = 3) was 2 h, the half-life (po, 400 mg, 400 mg twice daily oral, Cycle 1 Day 21, N = 2, interpret with caution, terminal elimination phase not well captured, read-out: t1/2 (converted)) was 648 min and the Vd/F (po, 400 mg, 400 mg twice daily oral, Cycle 1 Day 21, N = 2) was 122 L. The Cmax (po, 400 mg, 400 mg twice daily oral, Cycle 1 Day 21, geometric mean, N = 2) was 3680 ng/mL, the AUC(0-t) (po, 400 mg, 400 mg twice daily oral, Cycle 1 Day 21, geometric mean, N = 2, read-out: AUC0-last) was 30800 ng·h/mL and the half-life (po, 400 mg, 400 mg twice daily oral, Cycle 1 Day 21, geometric mean, N = 2, read-out: t1/2, eff (converted)) was 2310 min. The Tmax (po, 400 mg, 400 mg twice daily oral, Cycle 1 Day 21, median, N = 2) was 2.5 h, the Cmax [4] was 1460 ng/mL and the Tmax [4] was 2 h. For the same compound, the AUC(0-t) (po, 600 mg, 600 mg single oral dose, Cycle 1 Day 1, point estimate, N = 1, read-out: AUC0-12) was 11600 ng·h/mL, the AUC(0-t) (po, 600 mg, 600 mg single oral dose, Cycle 1 Day 1, point estimate, N = 1, read-out: AUC0-last) was 11600 ng·h/mL and the Cmax [5] was 5990 ng/mL. The Tmax [5] was 12 h, the AUC(0-t) (po, 600 mg, 600 mg twice daily oral, Cycle 1 Day 21, point estimate, N = 1, read-out: AUC0-last) was 60800 ng·h/mL and the half-life (po, 600 mg, 600 mg twice daily oral, Cycle 1 Day 21, point estimate, N = 1, read-out: t1/2, eff (converted)) was 2350 min. It also gave an AUC(0-inf) (25 mg single oral dose, Cycle 1 Day 1, geometric mean, N = 3) of 2200 ng·h/mL, an AUC (25 mg twice daily oral, Cycle 1 Day 21, geometric mean, N = 3) of 4110 ng·h/mL and an AUC(0-inf) (50 mg single oral dose, Cycle 1 Day 1, geometric mean, N = 3) of 5650 ng·h/mL. The AUC (50 mg twice daily oral, Cycle 1 Day 21, geometric mean, N = 3) was 9070 ng·h/mL, the AUC (100 mg twice daily oral, Cycle 1 Day 21, geometric mean, N = 3) was 11700 ng·h/mL and the AUC(0-inf) (200 mg single oral dose, Cycle 1 Day 1, geometric mean, N = 5) was 18000 ng·h/mL. For the same compound, the AUC (200 mg twice daily oral, Cycle 1 Day 21, geometric mean, N = 4) was 27200 ng·h/mL, the AUC(0-inf) (300 mg single oral dose, Cycle 1 Day 1, geometric mean, N = 4) was 4810 ng·h/mL and the AUC (300 mg twice daily oral, Cycle 1 Day 21, point estimate, N = 1) was 28400 ng·h/mL. The half-life (300 mg twice daily oral, Cycle 1 Day 21, point estimate, N = 1, read-out: t1/2, eff (converted)) was 1160 min, the AUC(0-inf) (400 mg single oral dose, Cycle 1 Day 1, geometric mean, N = 3) was 16300 ng·h/mL and the AUC (400 mg twice daily oral, Cycle 1 Day 21, geometric mean, N = 2) was 51200 ng·h/mL. For the same compound, the AUC (600 mg twice daily oral, Cycle 1 Day 21, point estimate, N = 1) was 60800 ng·h/mL, the Exposure versus dose (oral BID with food, 25 mg to 600 mg dose range, subjects with advanced solid tumors) was “increased roughly proportional to the increase in dose” and the Time to steady-state (oral BID, based on similar trough concentrations on Cycle 1, Days 8, 15 and 21) was “achieved by Cycle 1, Day 8”.
